# Reference: patent publication US12503436B2, “Compounds and compositions for treating conditions associated with STING activity” (NOVARTIS PHARMA AG, priority 2021, dated 2025)
# pEC50: −log10 of the molar value.
# Target: STING (Homo sapiens, UniProt Q86WV6, G230A/H232R/R293Q/R71H)
# Experiment: STING reporter assay in THP1-Dual KO-IFNAR2 cells (2′3′cGAMP stimulation, luciferase reporter)
# Assay type: cell-based
# Settings: 15 μM 2′3′cGAMP stimulation, 24 h, read-out: Pharmaron, THP1_IFNAR2 STING 24 h Luci Normalized: GeoMean EC50
# How it was run: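 EC50 from secreted luciferase (QUANTI-Luc Plus luminescence of supernatant) after 24 h at 37 °C, 5% CO2. Cells: THP1-Dual KO-IFNAR2, treated with compound (0.0017-100 μM final) plus lipofected 2′3′cGAMP at 15 μM final.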
# Sequence of STING (Q86WV6 whole entry R71H/G230A/H232R/R293Q): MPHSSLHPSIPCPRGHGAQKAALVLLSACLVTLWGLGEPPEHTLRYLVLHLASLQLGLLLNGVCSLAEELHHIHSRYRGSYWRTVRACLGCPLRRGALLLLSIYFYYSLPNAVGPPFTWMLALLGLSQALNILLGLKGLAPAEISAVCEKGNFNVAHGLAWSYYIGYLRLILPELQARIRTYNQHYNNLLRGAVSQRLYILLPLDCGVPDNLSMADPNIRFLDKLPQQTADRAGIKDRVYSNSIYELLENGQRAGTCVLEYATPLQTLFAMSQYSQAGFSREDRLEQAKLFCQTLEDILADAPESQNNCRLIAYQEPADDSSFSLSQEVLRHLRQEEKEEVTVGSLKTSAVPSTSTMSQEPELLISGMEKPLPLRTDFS
row,pEC50,SMILES
1,6.00 to 6.70,"CC(=O)Nc1c[nH]c2ccc(CCOc3ccc(F)c(C(F)(F)F)c3)cc12 [Compound 470, N-(5-{2-[4-fluoro-3-(trifluoromethyl)phenoxy]ethyl}-1H-indol-3-yl)acetamide]"
2,6.00 to 6.70,"CO[C@H]1C[C@H](C(=O)Nc2c[nH]c3ccc(OCCc4ccc(C(F)(F)F)nc4)cc23)C1 [Compound 194, trans-3-methoxy-N-(5-(2-(6-(trifluoromethyl)pyridin-3-yl)ethoxy)-1H-indol-3-yl)cyclobutane-1-carboxamide]"
3,6.00 to 6.70,"CC1(C(=O)Nc2c[nH]c3ccc(C(O)CCc4ccc(C(F)(F)F)cc4)cc23)CC1 (stereo not drawn) [Compound 172, N-(5-(1-hydroxy-3-(4-(trifluoromethyl)phenyl)propyl)-1H-indol-3-yl)-1-methylcyclopropane-1-carboxamide]"
4,6.00 to 6.70,"CC(=O)Nc1c[nH]c2ccc(CCOc3ccc(C4(C)CCN(CC(F)(F)F)CC4)cc3)cc12 [Compound 198, N-(5-(2-(4-(4-methyl-1-(2,2,2-trifluoroethyl)piperidin-4-yl)phenoxy)ethyl)-1H-indol-3-yl)acetamide]"
5,6.00 to 6.70,"O=C(Nc1c[nH]c2ccc(OCc3ccc(C(F)(F)F)cc3)cc12)[C@H]1C[C@@H](O)C1 [Compound 324, cis-3-hydroxy-N-(5-((4-(trifluoromethyl)benzyl)oxy)-1H-indol-3-yl)cyclobutane-1-carboxamide]"
6,6.00 to 6.70,"O=C(Nc1c[nH]c2ccc(/C=C/Cc3ccc(C(F)(F)F)cc3)cc12)C1CCC1 [Compound 135, (E)-N-(5-(3-(4-(trifluoromethyl)phenyl)prop-1-en-1-yl)-1H-indol-3-yl)cyclobutanecarboxamide]"
7,6.00 to 6.70,"O=C(Nc1c[nH]c2ccc(CCOc3ccc(C(F)(F)F)cc3)cc12)C1CCC1 [Compound 145, N-(5-(2-(4-(trifluoromethyl)phenoxy)ethyl)-1H-indol-3-yl)cyclobutanecarboxamide]"
8,6.00 to 6.70,"O=C(Nc1c[nH]c2ccc(OCCc3cnc(N4CCC(F)(F)CC4)c(F)c3)cc12)C1CC1 [Compound 183, N-(5-(2-(6-(4,4-difluoropiperidin-1-yl)-5-fluoropyridin-3-yl)ethoxy)-1H-indol-3-yl)cyclopropanecarboxamide]"
9,6.70 to 7.40,"N#C[C@H]1C[C@@H]1C(=O)Nc1c[nH]c2ccc(CCOc3ccc(C(F)(F)F)cc3)cc12 [Compound 391, (1S,2S)-2-cyano-N-(5-(2-(4-(trifluoromethyl)phenoxy)ethyl)-1H-indol-3-yl)cyclopropane-1-carboxamide]"
10,6.00 to 6.70,"O=C(Nc1c[nH]c2ccc(OCc3ccc(C(F)(F)F)cc3)cc12)C1CC(Cl)C1 (stereo not drawn) [Compound 322, 3-chloro-N-(5-((4-(trifluoromethyl)benzyl)oxy)-1H-indol-3-yl)cyclobutane-1-carboxamide]"
11,6.70 to 7.40,"CC(=O)Nc1c[nH]c2cc(F)c(CCOc3ccc(C(F)(F)F)cc3)cc12 [Compound 223, N-(6-fluoro-5-(2-(4-(trifluoromethyl)phenoxy)ethyl)-1H-indol-3-yl)acetamide]"
12,6.00 to 6.70,"CC1(C(=O)Nc2c[nH]c3ccc(OCC[C@@H]4C[C@@H]5CN(CC(F)(F)F)C[C@@H]5C4)cc23)CCOC1 (stereo partly drawn) [Compound 306, 3-methyl-N-(5-(2-((3aR,5r,6aS)-2-(2,2,2-trifluoroethyl)octahydrocyclopenta[c]pyrrol-5-yl)ethoxy)-1H-indol-3-yl)tetrahydrofuran-3-carboxamide]"
13,6.70 to 7.40,"CC[C@H](O)C(=O)Nc1c[nH]c2ccc(OCCc3ccc(C(F)(F)F)cc3)cc12 [Compound 430, (S)-2-hydroxy-N-(5-(4-(trifluoromethyl)phenethoxy)-1H-indol-3-yl)butanamide]"
14,6.00 to 6.70,"O=C(Nc1c[nH]c2ccc(OCC[C@@H]3C[C@@H]4CN(CC(F)(F)F)C[C@@H]4C3)cc12)C1CC1(F)Cl (stereo partly drawn) [Compound 577, 2-chloro-2-fluoro-N-(5-(2-((3aR,5r,6aS)-2-(2,2,2-trifluoroethyl)octahydrocyclopenta[c]pyrrol-5-yl)ethoxy)-1H-indol-3-yl)cyclopropane-1-carboxamide]"
15,6.00 to 6.70,"CC1(C(=O)Nc2c[nH]c3ccc(OC[C@H]4C[C@@H]5CN(CC(F)(F)F)C[C@@H]5C4)cc23)COC1 [Compound 542, 3-methyl-N-(5-(((3aR,5s,6aS)-2-(2,2,2-trifluoroethyl)octahydrocyclopenta[c]pyrrol-5-yl)methoxy)-1H-indol-3-yl)oxetane-3-carboxamide]"
16,5.30 to 6.00,"CC(=O)Nc1c[nH]c2ccc(COC[C@@H]3[C@H]4CN(CC(F)(F)F)C[C@@H]34)cc12 [Compound 274, N-(5-((((1R,5S,6r)-3-(2,2,2-trifluoroethyl)-3-azabicyclo[3.1.0]hexan-6-yl)methoxy)methyl)-1H-indol-3-yl)acetamide]"
17,6.70 to 7.40,"O=C(Nc1c[nH]c2ccc(OCC[C@@H]3C[C@@H]4CN(CC(F)(F)F)C[C@@H]4C3)cc12)C1CC(F)C1 (stereo partly drawn) [Compound 589, 3-fluoro-N-(5-(2-((3aR,5r,6aS)-2-(2,2,2-trifluoroethyl)octahydrocyclopenta[c]pyrrol-5-yl)ethoxy)-1H-indol-3-yl)cyclobutane-1-carboxamide]"
18,6.00 to 6.70,"CC(=O)Nc1c[nH]c2ccc(OCC3CCC(C(F)(F)F)CC3)cc12 (stereo not drawn) [Compound 472, N-(5-((4-(trifluoromethyl)cyclohexyl)methoxy)-1H-indol-3-yl)acetamide]"
19,6.00 to 6.70,"CC(=O)Nc1c[nH]c2ccc(CCOc3ccc(C(F)(F)F)cn3)cc12 [Compound 215, N-(5-(2-((5-(trifluoromethyl)pyridin-2-yl)oxy)ethyl)-1H-indol-3-yl)acetamide]"
20,6.00 to 6.70,"CC1(C(=O)Nc2c[nH]c3ccc(OCc4ccc(C(F)(F)F)cc4)cc23)CN(CC(F)F)C1 [Compound 421, 1-(2,2-difluoroethyl)-3-methyl-N-(5-((4-(trifluoromethyl)benzyl)oxy)-1H-indol-3-yl)azetidine-3-carboxamide]"

row,SMILES,pEC50
1,"CC(=O)Nc1c[nH]c2ccc(O[C@H]3C[C@@H](c4ccc(C(F)(F)F)cc4)C3)cc12 [Compound 102, N-(5-(cis-3-(4-(trifluoromethyl)phenyl)cyclobutoxy)-1H-indol-3-yl)acetamide]",6.70 to 7.40
2,"CC(=O)N[C@H]1C[C@@](C)(C(=O)Nc2c[nH]c3ccc(O[C@H]4C[C@@H](c5ccc(C(F)(F)F)cc5)C4)cc23)C1 [Compound 412, cis-3-acetamido-1-methyl-N-(5-(cis-3-(4-(trifluoromethyl)phenyl)cyclobutoxy)-1H-indol-3-yl)cyclobutane-1-carboxamide]",5.30 to 6.00
3,"O=C(Nc1c[nH]c2ccc(O[C@H]3C[C@@H](c4ccc(C(F)(F)F)nc4)C3)cc12)[C@H]1C[C@@H](CO)C1 [Compound 550, cis-3-(hydroxymethyl)-N-(5-(cis-3-(6-(trifluoromethyl)pyridin-3-yl)cyclobutoxy)-1H-indol-3-yl)cyclobutane-1-carboxamide]",6.00 to 6.70
4,"CO[C@H]1C[C@@H](C(=O)Nc2c[nH]c3ccc(O[C@H]4C[C@@H](c5ccc(C(F)(F)F)cc5)C4)cc23)C1 [Compound 245, cis-3-methoxy-N-(5-(cis-3-(4-(trifluoromethyl)phenyl)cyclobutoxy)-1H-indol-3-yl)cyclobutane-1-carboxamide]",6.70 to 7.40
